In patent publication US9458104B2 (priority 2012, dated 2016):

How the values were obtained:
[1] = target: T1, RORγ ligand binding domain (LBD) (Homo sapiens, UniProt P51449); assay: TR-FRET Activity Assay (ligand sensing assay, RORγ-LBD / coactivator peptide interaction); assay type: biochemical
T1 construct: made in house; host or cells: E. coli BL-21 (BL3), vector pDEST15
T1 sequence (P51449 269-508 limits assumed): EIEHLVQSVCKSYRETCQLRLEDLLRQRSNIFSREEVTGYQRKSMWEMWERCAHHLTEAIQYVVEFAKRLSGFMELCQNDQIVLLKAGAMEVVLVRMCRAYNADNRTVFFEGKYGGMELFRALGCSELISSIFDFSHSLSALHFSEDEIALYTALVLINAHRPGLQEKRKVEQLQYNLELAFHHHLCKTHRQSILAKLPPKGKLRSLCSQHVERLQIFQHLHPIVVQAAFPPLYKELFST
From the text: This method measures the ability of putative ligands to modulate the interaction between the purified bacterial expressed RORγ ligand binding domain (LBD) and synthetic N-terminally biotinylated peptides which are derived from nuclear receptor coactivator proteins such as but not limited to SRC1 (NcoA1), SRC2 (NcoA2, TIF2), SRC3 (NcoA3), PGC1α, PGC1β, CBP, GRIP1, TRAP220, RIP140.
The ligand-binding domain (LBD) of RORγ was expressed as fusion protein with GST in […] cells using the vector pDEST15. Cells were lysed by lysozyme-treatment and sonication, and the fusion proteins purified over glutathione sepharose (Pharmacia) according to the manufacturers instructions. For screening of compounds for their influence on the RORγ-peptide interaction, the LANCE technology (Perkin Elmer) was applied. This method relies on the binding dependent energy transfer from a donor to an acceptor fluorophor attached to the binding partner of interest. For ease of handling and reduction of background from compound fluorescence LANCE technology makes use of generic fluorophore labels and time resolved detection assays were done in a final volume of 25 μL in a 384 well plate, in a Tris-based buffer system (20 mM Tris-HCl pH6.8; 60 mM KCl, 1 mM DTT; 5 mM MgCl2; 35 ng/μL BSA), containing 20-60 ng/well recombinantly expressed RORγ-LBD fused to GST, 200-600 nM N-terminally biotinylated peptide, 200 ng/well Streptavidin-xIAPC conjugate (Prozyme) and 6-10 ng/well Eu W1024-antiGST (Perkin Elmer). DMSO content of the samples was kept at 1%.
After generation of the Tris-based buffer system, the potentially RORγ modulating ligands were diluted. […] The LANCE signal was detected by a Perkin Elmer EnVision™ Multilabel Counter. The results were visualized by plotting the ratio between the emitted light at 665 nm and 615 nm. […] Ligands that promote the complex formation induce a concentration-dependent increase in time-resolved fluorescent signal.
To assess the antagonistic potential of the compounds, IC50 values were determined using a Ligand Sensing Assay based on Time-resolved Fluorescence Energy Transfer (TR-FRET) as described above. The normalised TR-FRET assay values, using the following equation: 1000*665 nm measurement value/615 nm measurement value, were transferred to the program GraphPad Prism to generate graphs and dose response curves using the following equation: […]
This is identical to the “four parameter logistic equation”. The IC50 values are calculated using this equation. […] Is is understood that the data illustrated below may have reasonable variation depending on the specific conditions and procedures used by the person conducting the test.

RORγ = target: T2, RORγ (UniProt P51449); assay type: cell-based; conditions: 293T cells, 16 h; for pIC50 (FF): firefly (FF) luciferase; for pIC50 (REN): renilla normalised (RENnorm) luciferase
T2 construct: hRORg-LBD|aa259-518|NP_005051.2; hRORgt|aa1-497|NP_001001523 (RORg, t isoform, 497aa); mRORg-LBD|aa264-516|NP_035411
T2 sequence (P51449 1-518): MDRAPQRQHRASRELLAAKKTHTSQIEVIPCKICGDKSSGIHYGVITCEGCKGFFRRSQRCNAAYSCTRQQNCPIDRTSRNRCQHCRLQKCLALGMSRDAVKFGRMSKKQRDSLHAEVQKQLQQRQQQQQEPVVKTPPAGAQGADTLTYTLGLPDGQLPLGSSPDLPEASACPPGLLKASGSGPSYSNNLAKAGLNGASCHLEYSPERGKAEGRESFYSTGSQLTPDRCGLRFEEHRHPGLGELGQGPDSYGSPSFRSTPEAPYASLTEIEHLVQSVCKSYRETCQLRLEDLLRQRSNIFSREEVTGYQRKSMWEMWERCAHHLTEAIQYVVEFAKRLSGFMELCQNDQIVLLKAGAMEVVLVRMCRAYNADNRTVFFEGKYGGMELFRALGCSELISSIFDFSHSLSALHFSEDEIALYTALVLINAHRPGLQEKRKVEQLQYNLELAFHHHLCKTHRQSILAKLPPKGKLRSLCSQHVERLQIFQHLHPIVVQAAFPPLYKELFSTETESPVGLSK
Description: Determination of a ligand mediated Gal4 promoter driven transactivation to quantify ligand binding to RORγ was performed as follows: DNA encoding three different RORγ. protein fragments was cloned into vector pCMV-BD (Stratagene). Expression was under control of a CMV promoter and as fusion to the DNA-binding domain of the yeast protein GAL4. Other vectors used were pFR-Luc (Stratagene) as regulated reporter plasmid. pFR-Luc contains a synthetic promoter with five tandem repeats of the yeast GAL4 binding sites that control expression of the Photinus pyralis (American firefly) luciferase gene. In order to improve experimental accuracy the plasmid pRL-CMV was cotransfected. pRL-CMV contains the constitutive CMV promoter, controlling the expression of the Renilla reniformis luciferase.
All Gal4 reporter gene assays were done in 293T cells (DSMZ (German Collection of Microorganisms and Cell Cultures), Braunschweig, Germany, ACC635) grown in Minimum Essential Medium (MEM) with Phenol Red. The medium is supplemented with 10% fetal bovine serum, 0.1 mM nonessential amino acids, 1 mM sodium pyruvate, 1% Glutamax and 100 units Penicilin/[…] per mL at 37° C. in 5% CO2.
For the assay, […] were plated per well in 96 well plates in 100 μL per well, incubated over night at 37° C. in 5% CO2. The following day, medium was discarded and the cells were transiently transfected using 20 μL per well of a OptiMEM—PEI-based transfection-reagent (Sigma-Aldrich, 408727) including the three plasmids described above. About 4 h after addition of the transfection solution, fresh Minimal Essential Medium (MEM, same composition as used for plating cells, but without serum) was added. Then compound stocks, prediluted in MEM (same composition as used for plating cells) were added (final vehicle concentration not exceeding 0.1%).
All experiments were done at least in triplicates.
It is understood that the data illustrated below may have reasonable variation depending on the specific conditions and procedures used by the person conducting the test.

SMILES	IC50 [1] [nM]	pIC50 (FF) (RORγ)	pIC50 (REN) (RORγ)
CC(C)(O)CNC(=O)c1nn(-c2cc(C(C)(C)C)cc(C(C)(C)C)c2)c(CC2CCCCC2)c1Cl [103/5]	316	6.2	6.3
CC(C)(C)c1cc(-n2nc(C(=O)NCc3ccno3)c(Cl)c2CC2CCCCC2)cc(C(C)(C)C)c1 [103/6]	631	6.1	6.2
CC(C)(C)c1cc(-n2nc(C(=O)NCc3cnco3)c(Cl)c2CC2CCCCC2)cc(C(C)(C)C)c1 [103/7]	251	6.3	6.3
CC(C)(C)c1cc(-n2nc(C(=O)NCc3ccn[nH]3)c(Cl)c2CC2CCCCC2)cc(C(C)(C)C)c1 [103/8]	794	< 4.7	< 4.7
COC(C)(C)c1cc(-n2nc(C(=O)NC3COC3)c(Cl)c2CC2CCCCC2)cc(C(C)(C)C)c1 [104/4]	631	6.6	6.6
CC(C)(C)NS(=O)(=O)c1ccc(-c2cc(C(=O)NC34CCC(C(=O)O)(CC3)CC4)nn2CC2CCCCC2)c(Cl)c1Cl [112/2]	794	6.9	7.0
Cc1c(C(=O)NC2CCOCC2)cc(-c2ccc(S(=O)(=O)NC(C)(C)C)c(C(F)(F)F)c2)n1CC(C)(C)C [302/2]	5010	6.1	6.1
Cc1c(C(=O)NC2CCOCC2)cc(-c2ccc(S(=O)(=O)NC(C)(C)C)c(C(F)(F)F)c2)n1CC1COC1 [302/3]	15800	6.3	6.2
Cc1c(C(=O)NC2CCOCC2)cc(-c2ccc(S(=O)(=O)NC(C)(C)C)c(C(F)(F)F)c2)n1CC1CCOC1 (stereo not drawn) [302/4]	3980	< 4.7	< 4.7
Cc1c(C(=O)NC2CCOCC2)cc(-c2ccc(S(=O)(=O)NC(C)(C)C)c(C(F)(F)F)c2)n1CC1CCCOC1 (stereo not drawn) [302/5]	794	6.2	6.3
Cc1c(C(=O)NC2CCOCC2)cc(-c2ccc(S(=O)(=O)NC(C)(C)C)c(C(F)(F)F)c2)n1C1CCCCC1 [302/6]	1000	6.5	6.7
CC(C)(C)c1cc(-c2nc(C(N)=O)nn2CC2CCCCC2)cc(C(C)(C)C)c1 [308/1]	2510	6.0	6.0
CC(C)(C)c1cc(-c2nc(C(=O)NC3CC3)nn2CC2CCCCC2)cc(C(C)(C)C)c1O [308/2]	631	6.2	6.3
CC(C)(C)c1cc(-c2nc(C(=O)NC3COC3)nn2CC2CCCCC2)cc(C(C)(C)C)c1O [308/3]	794	6.3	6.4
CC(C)(C)c1cc(-c2nc(C(=O)NC3CCOCC3)nn2CC2CCCCC2)cc(C(C)(C)C)c1O [308/4]	1000	6.3	6.4
CC(C)(O)CNC(=O)c1nc(-c2cc(C(C)(C)C)c(O)c(C(C)(C)C)c2)n(CC2CCCCC2)n1 [308/6]	1000	6.5	6.5
C[C@@H](O)CNC(=O)c1nc(-c2cc(C(C)(C)C)c(O)c(C(C)(C)C)c2)n(CC2CCCCC2)n1 [308/7]	2510	5.7	5.9
C[C@H](O)CNC(=O)c1nc(-c2cc(C(C)(C)C)c(O)c(C(C)(C)C)c2)n(CC2CCCCC2)n1 [308/8]	1580	6.2	6.3
CC(C)(C)NS(=O)(=O)c1ccc(-c2nc(C(=O)NC3CCOCC3)nn2CC2CCCCC2)cc1C(C)(C)C [308/9]	7940	5.6	5.6
CC(C)(C)NS(=O)(=O)c1ccc(-c2nc(C(=O)N[C@H]3C[C@H](C(=O)O)C3)nn2CC2CCCCC2)cc1C(C)(C)C [308/10]	6310	< 4.7	< 4.7
Cc1cc(-n2nc(C(N)=O)cc2CC2CCCCC2)cc(C(C)(C)C)c1 [312/2]	7940	< 4.7	< 4.7
Cc1c(C(=O)NCC(C)(C)O)cn(-c2cc(C(C)(C)C)cc(C3(C)CC3)c2)c1CC1CCCCC1 [Example 1/1]	200	7.4	7.5
Cc1c(C(=O)NC2CCOCC2)cn(-c2cc(Br)cc(C(C)(C)C)c2)c1C=C1CCCCC1 [Example 2, 1-(3-Bromo-5-(tert-butyl)phenyl)-5-(cyclohexylidenemethyl)-4-methyl-N-(tetrahydro-2H-pyran-4-yl)-1H-pyrrole-3-carboxamide]	1260	6.4	6.5
